The record followed here is patent US20140194361A1, “Vault Agents for Treating Chronic Kidney Disease” (priority 2010, published 2014).

“Also recorded” adds a separate entry of the source. No end group written: not given here.

For assay [1], the system named is extracellular matrix and signaling proteins of DN. The assay is described as follows: expression of extracellular matrix and signaling proteins of DN in cells (immunoblotting). In kind it is cell-based. The note with it: for expression of extracellular matrix and signaling proteins of DN: serum-starved 48 h, treated 48 h, vs RGE/CRGE peptides. As to the method:
Cells were serum-starved for 48 h and then untreated or treated with or without the unmodified RGD/RGE and modified CRGD/CRGE peptide for 48 h.
Background: A western blot detects proteins with antibodies after separation by electrophoresis.

The test system of assay [2] is type 1 diabetic Ins2Akita/+ mice. Briefly: prevention of progression of DN in type 1 diabetic Ins2Akita/+ mice. Type of assay: in vivo. As to the method: (§1) We investigated the ability of cyclic GRGDSP vs. GRGESP in a pilot study to prevent accumulation of glomerular lesions in early DN in 20 week old diabetic type 2 db/db vs non-diabetic db/m and diabetic type 1 Ins2Akita+ vs. non-diabetic Ins2+/+ mice with GRGESP and […] and observed up to 52% reduction in albuminuria in the type 2 diabetic mice (FIGS. 1-2) and ˜70% reduction in albuminuria in the type 1 diabetic mice (FIG. 6).

Assay [3] deals with type 2 diabetic db/db mice. Briefly: prevention of progression of early DN in type 2 diabetic db/db mice. In kind it is in vivo.
Excerpt: There was no change in blood pressure or plasma glucose in either the diabetic or non-diabetic animals.
There was no change in creatinine clearance in the cyclic-GRGESP-control peptide treated diabetic animals
In addition, glomerular volume measured by fractional volume of expansion by electron microscopy was normalized, p<0.05 after 12 weeks of treatment.
as §1

Assay [4] deals with aged type 2 diabetic db/db mice. Briefly: regression of established DN in aged type 2 diabetic db/db mice. Type of assay: in vivo.
A further assay relates to integrin. Briefly: experimentally verified RGD inhibitors blocking fibronectin adhesion to integrin. An excerpt: Preferably, the synthetic analog inhibitors should have higher affinity to the integrin than the RGD loop of fibronectin. […] These two cyclic peptides were also used as reference structures to construct new inhibitors.
Combining the experimental results with the data obtained from our calculations we were able to predict the efficiency of the various inhibitors and to determine which structure is the most favorable fragment with regard to integrin binding energy.

Where [5] appears, read: 2400 μg/kg, after 4, 8 and 12 weeks of treatment.
The mark [6] stands for this setting: type 2 and type 1 diabetic mice, 400-2400 μg/kg.

Turning to “CGRGDSP (also: cyclic peptide, ring closure not given here) [cyclic GRGDSP peptide with an added cysteine linker (free cysteine residue)]”, the “integrin-mediated cellular signaling by TGF-β, AKT and STAT3” value in assay [1] (kinetic studies and immunoblotting) is “inhibition”. Moreover, in assay [1], the “expression of extracellular matrix and signaling proteins of DN” value is recorded as “significantly reduced”.
For GRGDSP [cyclic-GRGDSP], the “expression of extracellular matrix and signaling proteins of DN” value in assay [1] is on record as “significantly reduced”. Besides, the “albuminuria measured as albumin-to-creatinine ratio” value in assay [2] (setting [5]) is reported as “ameliorated albuminuria”. The “glomerular expression of extracellular matrix proteins (fibronectin, collagen I and collagen IV)” value in assay [2] (after 12 weeks of treatment) is “reduced glomerular expression of extracellular matrix proteins”. This substance gave a reduction in albuminuria in assay [2] (type 1 diabetic mice, 400-2400 μg/kg) of roughly 70%. The “amelioration of albumin excretion rate” value in assay [3] (setting [5]) is “up to 52%”. Further, in assay [3] (after 12 weeks of treatment), the “glomerular extracellular matrix expansion (periodic acid Schiff staining)” value was “prevented glomerular extracellular matrix expansion” and the “glomerular volume (fractional volume of expansion by electron microscopy)” value was “normalized”. For the same substance, the “albumin excretion rate in control animals” value in assay [3] (control type 2 diabetic animals, 2400 μg/kg) is “did not alter”. Besides, the albumin excretion rate entry in assay [3] (db/db vs db/m mice, 400-2400 μg/kg, after 4 weeks of treatment, vs cyclic-GRGESP control) is “ameliorating albumin excretion rate in a dose dependent manner”. In assay [3] (setting [6]), the “DN signaling proteins by Western blot” value is “significant reduction”; the “glomerular expression extracellular matrix by Periodic Acid Schiff and electron microscopy” value is recorded as “significant reduction”. Also, the reduction in albuminuria entry in assay [3] (type 2 diabetic mice, 400-2400 μg/kg) is reported as “up to 52%”. The reduction in albuminuria result in assay [4] (21-week-old db/db mice, 2400-4800 μg/kg, 4 weeks i.p.) is “up to 71%”. Moreover, in assay [4] (2400-4800 μg/kg, 4 weeks i.p.), the “expression of fibronectin, collagen I, collagen IV, TGF-β, ERK/MAPK and Nox4 (Western blot of kidney cortical tissues)” value was “reduced expression”; the “glomerulosclerosis index (Periodic Schiff stained kidney section)” value was “significant reduction”; the mesangial expansion result was “reduced mesangial expansion”. Further, in assay [4] (3600 and 4800 μg/kg, 4 weeks intraperitoneal, dose-dependent), the “reduction of albumin excretion rate” value is on record as “up to 71%”. Besides, the “glomerular extracellular matrix proteins (fibronectin, collagen I and collagen IV)” value in assay [4] (3600 and 4800 μg/kg, 4 weeks, dose-dependent) is given as “reduced glomerular extracellular matrix proteins”. Moreover, the “expression of known signaling molecules of DN” value in assay [4] (3600 and 4800 μg/kg, dose-dependent) is recorded as “reduced the expression”.
For cyc-RGDSPG, the “efficiency as inhibitor (experimentally verified)” value in the assay with integrin is reported as “successful candidate of inhibitors; also recorded: efficient inhibitors”.
Turning to cyc-RGDSPSG (cyclised or stapled), in the assay with integrin, the “efficiency as inhibitor (experimentally verified)” value is “efficient inhibitors”.
The same measure, in the same setting: with cyc-RGDSPCG the entry was “efficient inhibitors”.
